# Read-outs that look alike come from different tables or passages of the source.
# How the values were obtained:
# [1] = system: carrageenan-induced thermal hyperalgesia, Sprague Dawley rats; assay: In vivo rat model for inflammatory pain (carrageenan, thermal hyperalgesia); conditions: oral, carrageenan paw, thermal escape latency
# Method: Compounds with anti-hyperalgesic activity will increase (or lengthen) the escape latency of the inflamed paw.
# To induce a local inflammation, 50 μL of a 1% solution of λ-carrageenan in sterile water is injected subcutaneously into the plantar surface of the right hind paw of the rat (Sprague Dawley rats, sample size=8 per treatment group). The KCNQ openers typically at doses ranging from 1-100 mg/kg were homogenized in either 0.5% carboxymethylcellulose in water or 0.5% methylcellulose in water and administered orally through a steel 18-gauge rat gavage tube in a volume of 2 mL/kg of body weight 30 minutes prior to carrageenan injection. After carrageenan injection behavioral testing is conducted at the appropriate time following opener or vehicle administration (generally Tmax, the time of maximum plasma levels of the compound being tested). To assess the thermally evoked paw withdrawal response, a commercially available Hargreaves Box was used (UCSD Department of Anesthesiology, San Diego; La Jolla, Calif., stimulus intensity 5.25 amps). Rats were placed on a thin glass surface in individual chambers made of clear plastic. […] The time to withdrawal response is measured in seconds and assigned as the response latency. […]
# [2] = system: tactile allodynia following L5 nerve ligation, Male Sprague-Dawley rats; assay: In vivo rat assay for neuropathic pain (L5 spinal nerve ligation, Von Frey tactile allodynia); conditions: oral, Von Frey 50% paw withdrawal threshold after L5 ligation
# Source text: A neuropathic pain condition is induced in rats using a nerve injury model similar to the method described by Kim and Chung (Kim, S. H. & Chung, J. M. (1992) Pain 50:355-363). Rats (Male Sprague-Dawley, Charles River, Wilmington, Mass.) weighing 200-300 grams were utilized. Food and water was available ad libitum except during testing) are anesthetized with halothane and the L5 spinal nerve is exposed, carefully isolated, and tightly ligated with 4.0 silk suture distal to the dorsal root ganglia. The wounds are sutured and the animals are allowed to recover in individual cages. To test the effect of a KCNQ opener on tactile allodynia following L5 nerve ligation, Von Frey tactile withdrawal thresholds are determined. Test animals are placed in a box separated by walls with a wire mesh floor allowing access to the plantar surface of the paw. […] Failure to lift the hind paw after 4 seconds is scored as a negative response and the next ascending hair is applied. […]
# Baseline measurements of allodynia are performed immediately prior to subject selection and compound administration. […] Additional paw withdrawal thresholds are measured at various time intervals after compound administration. Examples 153 and 19 were evaluated in this assay.
# [3] = system: electroshock seizure, Male Wistar rats; assay: In vivo rat assay for anti-convulsant activity (rat MES, electroshock seizure); conditions: for ED50: Rattus norvegicus, po, rat MES dose-response; for Rat MES activity: single dose screening, oral, typically 10 mg/kg, animals protected from hind limb extension
# Method: Male Wistar rats were housed 4 per cage on a regular light/dark cycle (lights on 0600-1800) for one week prior to anti-convulsant testing. The apparatus used to induce electroshock seizure was obtained from Walhquist Instrument Co., Salt Lake City, Utah. The shock level was set at 150 mA and the duration at 0.2 seconds. A drop of 1% proparacaine solution was placed in each eye of a rat, the electrodes were placed over the eyes, and the shock was administered. Latency to hind limb extension was measured to the nearest 0.1 second.
# The KCNQ opener was homogenized in either 0.5% carboxymethylcellulose in water or 0.5% methylcellulose in water) and administered orally through a steel 18-gauge rat gavage tube in a volume of 2 mL/kg of body weight. In the single dose screening assay, latency to seizure for the vehicle group and the KCNQ opener group were compared using t-test. Typically a dose of 10 mg/kg of the opener is used. However, openers can be run n a dose-response experiment where doses of 1, 3, 10 and 30 mg/Kg are used.
# In the single dose screening assay, latency to seizure for the vehicle and the 10 mg/kg groups were compared using t-test. Latencies to seizure in the dose response studies were submitted to analysis of variance and all dose groups were compared to vehicle using Dunnett's method (JMP© ver 5.1, SAS). In all cases an effect was considered significant if p≦0.05.
# [4] = system: SH-SY5Y M-currents (KCNQ2, KCNQ3 and KCNQ5); assay: SH-SY5Y native cell line FLIPR assay (voltage-sensitive dye DiBAC); assay type: cell-based, mouse neuroblastoma, rat glioma hybrid cell line; conditions: SH-SY5Y native cell line, read-out: SH-SY5Y EC50
# How it was run: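 Response is peak DiBAC fluorescence change, normalised to the maximum from a positive control agent, sampled every 30 s over 25 min. Before compound addition, SH-SY5Y cells differentiated with PGE1 plus isomethylbutylxanthine were dye-loaded for 1 h in EBSS with […] DiBAC.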
# [5] = Metabolic stability in rats after oral administration (mass spectrometry); assay type: in vivo, rat; conditions: result in words
# Source text: Metabolite 14% of parent for compound 65 and metabolite 35% of parent for compound 366 were observed.
SMILES,EC50 ([4]; FLIPR assay (Table 6)) [nM],ED50 [3] [mg/kg],Rat MES activity [3],metabolism in rats [5],further results
"CC(C)(C)CC(=O)Nc1nc2ccc(F)cn2c1-c1ccc(OC(F)(F)F)cc1 [Compound 153, N-(6-fluoro-3(4-(trifluoromethoxy)phenyl)imidazo[1,2-a]pyridin-2-yl)-3,3-dimethylbutanamide]",,0.5,+++ (+++ 7-8 animals protected),,"ED50 [1]: 0.5 to 1 mg/kg; ED50 [2]: 1.9 mg/kg; EC50 ([4]; FLIPR assay, Table 2): < 500 nM"
"CC(C)(CC(=O)Nc1nc2ccc(F)cn2c1-c1cc(C(F)(F)F)ccn1)C(F)(F)F [Compound 433, 4,4,4-trifluoro-N-(6-fluoro-3-(4-(trifluoromethyl)pyridin-2-yl)imidazo[1,2-a]pyridin-2-yl)-3,3-dimethylbutanamide]",500 to 3000,3.9,,little or no metabolism,
"CC(C)(C)CC(=O)Nc1nc2ccc(C(F)(F)F)cn2c1CC(C)(C)C [Compound 19, 3,3-dimethyl-N-(3-neopentyl-6-(trifluoromethyl)imidazo[1,2-a]pyridin-2-yl)butanamide]",,,+++ (+++ 7-8 animals protected),,"ED50 [2]: 10 mg/kg; EC50 ([4]; FLIPR assay, Table 1): < 500 nM"
"CC(C)(CC(=O)Nc1nc2ccc(C(F)(F)F)cn2c1C1CCC1)C(F)(F)F [Compound 431, N-(3-cyclobutyl-6-(trifluoromethyl)imidazo[1,2-a]pyridin-2-yl)-4,4,4-trifluoro-3,3-dimethylbutanamide]",< 500,5.2,+++ (+++ 7-8 animals protected),little or no metabolism,
"CC(C)(C)CC(=O)Nc1nc2ccc(F)cn2c1-c1cc(C(F)(F)F)ccn1 [Compound 366, N-(6-fluoro-3-(4-(trifluoromethyl)pyridin-2-yl)imidazo[1,2-a]pyridin-2-yl)-3,3-dimethylbutanamide]",,,,undergo metabolism at the terminal carbon of the t-butyl group,EC50 ([4]; FLIPR assay (Table 3)): < 500 nM
"CC(C)(C)CC(=O)Nc1nc2ccc(C(F)(F)F)cn2c1C1CC1 [Compound 65, N-(3-cyclopropyl-6-(trifluoromethyl)imidazo[1,2-a]pyridin-2-yl)-3,3-dimethylbutanamide]",,,,undergo metabolism at the terminal carbon of the t-butyl group,"EC50 ([4]; FLIPR assay, Table 1): 500 to 3000 nM"

# Continued, in another order:
EC50 ([4]; FLIPR assay (Table 6)) [nM],SMILES,ED50 [3] [mg/kg],Rat MES activity [3],metabolism in rats [5],further results
500 to 3000,"CC(C)(C(=O)Nc1nc2ccc(C(F)(F)F)cn2c1C1CC1)C(F)(F)F [Compound 429, N-(3-cyclopropyl-6-(trifluoromethyl)imidazo[1,2-a]pyridin-2-yl)-3,3,3-trifluoro-2,2-dimethylpropanamide]",3.4,+++ (+++ 7-8 animals protected),,
500 to 3000,"O=C(Nc1nc2ccc(C(F)(F)F)nn2c1C1CC1)c1ccc(F)c(F)c1 [Compound 434, N-(3-cyclopropyl-6-(trifluoromethyl)imidazo[1,2-b]pyridazin-2-yl)-3,4-difluorobenzamide]",,++ (++ 4-6 animals protected),,
